Assay in all cases: Bliss excess, mean over the matrix (fraction); higher = more synergy
The subject of test [1] is MFE-280 (Endometrial Carcinoma). An outline of the steps:
(§1)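 Bliss excess equals the observed combination effect minus the expected value EA + EB − EA·EB, where EA and EB are the effects of each agent alone. Combination Emax is the second-highest inhibition within the matrix. Inhibition was scaled from CellTiter-Glo 2.0 luminescence, with 0 set by vehicle wells and 1 by blank wells, after 72 hours of two-drug dosing of cells plated in 1536-well plates.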

Test [2] concerns HEC-1 (Endometrial Carcinoma). An outline of the steps: as §1
Test [3] deals with FADU (Head and Neck Carcinoma). An outline of the steps: as §1
In test [4] the test system is CAL-62 (Thyroid Gland Carcinoma). A digest of the protocol: as §1
For test [5], the system named is LB996-RCC (Kidney Carcinoma). An outline of the steps: as §1
Test [6] has as its system OAW-42 (Ovarian Carcinoma). A digest of the protocol: as §1
Test [7] deals with SHP-77 (Small Cell Lung Carcinoma). A digest of the protocol: as §1
For test [8], the system named is MKN45 (Gastric Carcinoma). An outline of the steps: as §1
The subject of test [9] is REH (B-Lymphoblastic Leukemia). A digest of the protocol:
as §1

Test [10] has as its system TE-8 (Esophageal Squamous Cell Carcinoma). A digest of the protocol:
as §1

The subject of test [11] is RKN (Other Solid Carcinomas). An outline of the steps:
as §1

Test [12] concerns LK-2 (Squamous Cell Lung Carcinoma). An outline of the steps:
as §1

For test [13], the system named is PANC-03-27 (Pancreatic Carcinoma). A digest of the protocol: as §1
The next test has as its system LN-229 (Glioblastoma). An outline of the steps:
as §1

The subject of test [14] is NCI-H446 (Small Cell Lung Carcinoma). An outline of the steps: as §1
The subject of test [15] is COLO-680N (Esophageal Squamous Cell Carcinoma). A digest of the protocol: as §1
Test [16] concerns PSN1 (Pancreatic Carcinoma). An outline of the steps:
as §1

Test [17] relates to GP5d (Colorectal Carcinoma). A digest of the protocol: as §1
In test [18] the test system is RERF-LC-Sq1 (Squamous Cell Lung Carcinoma). An outline of the steps: as §1
For test [19], the system named is KE-37 (T-Lymphoblastic Leukemia). An outline of the steps: as §1

SMILES strings stand for the structures.

For `CC1(C)CCC(CN2CCN(c3ccc(C(=O)NS(=O)(=O)c4ccc(NCC5CCOCC5)c([N+](=O)[O-])c4)c(Oc4cnc5[nH]ccc5c4)c3)CC2)=C(c2ccc(Cl)cc2)C1` [Venetoclax] + C=CCn1c(=O)c2cnc(Nc3ccc(N4CCN(C)CC4)cc3)nc2n1-c1cccc(C(C)(C)O)n1 [AZD1775] (first compound max 1 µM, partner max 1 µM), the Bliss excess was 0.0767 in [1]; -0.0569 in [2]; -0.0282 in test [3]; 0.0452 in [4]; -0.0466 in test [5]; -0.0283 in [6]. The Bliss excess in test [7] was 0.0141; in [8], -0.0402; in [9], 0.0623; in [10] it was -0.0071; in test [11], -0.0729; in test [12], 0.012. In addition, the Bliss excess in test [13] was 0.035; in the test on LN-229 (Glioblastoma), -0.0083; in test [14] it was -0.029; in test [15] it was -0.0402; in test [16], -0.0553; in [17] it was -0.0561. In addition, the Bliss excess is -0.0437 in test [18] and 0.0083 in test [19].
For `CC1(C)CCC(CN2CCN(c3ccc(C(=O)NS(=O)(=O)c4ccc(NCC5CCOCC5)c([N+](=O)[O-])c4)c(Oc4cnc5[nH]ccc5c4)c3)CC2)=C(c2ccc(Cl)cc2)C1` [Venetoclax] + Cn1cnc2c(F)c(Nc3ccc(Br)cc3Cl)c(C(=O)NOCCO)cc21 [Selumetinib] (first compound max 1 µM, 7x7, partner max 3 µM), the Bliss excess is -0.0138 in test [1]; -0.0315 in [2]; 0.0212 in test [3]; -0.0114 in test [4]; -0.0209 in [5]; -0.0283 in [6]. Besides, the Bliss excess is 0.105 in [7]; -0.0574 in [8]; -0.0467 in test [9]; -0.0282 in [10]; -0.0034 in test [11]; -0.0073 in [12]. Besides, the Bliss excess in test [13] was 0.0047; in the test on LN-229 (Glioblastoma) it was -0.0372; in [14] it was -0.0372; in test [15], -0.0243; in [16], -0.0262; in test [17], 0.01. Besides, the Bliss excess in test [18] was -0.0467; in test [19], -0.0013.
Turning to `CC1(C)CCC(CN2CCN(c3ccc(C(=O)NS(=O)(=O)c4ccc(NCC5CCOCC5)c([N+](=O)[O-])c4)c(Oc4cnc5[nH]ccc5c4)c3)CC2)=C(c2ccc(Cl)cc2)C1` [Venetoclax] + CCN(CCO)CCCOc1ccc2c(Nc3cc(CC(=O)Nc4cccc(F)c4)[nH]n3)ncnc2c1 [AZD2811] (first compound max 1 µM, 7x7, partner max 1 µM), the Bliss excess in test [1] is 0.0557; in test [2] it was -0.0262; in [3], 0.0341; in test [4] it was 0.0363; in test [5], -0.0133; in test [6], -0.0059. Also, the Bliss excess in [7] was 0.0432; in test [8], -0.066; in [9], 0.18; in test [10], 0.0482; in test [11] it was -0.011; in [12], 0.0197. Moreover, the Bliss excess in [13] was -0.028; with LN-229 (Glioblastoma), -0.014; in [14], -0.0077; in test [15] it was -0.0166; in test [16], -0.0478; in [17], -0.0235. Also, the Bliss excess in test [18] is 0.0197; in test [19], -0.0266.
Regarding `CN(CCO)CC[C@H](CSc1ccccc1)Nc1ccc(S(=O)(=O)NC(=O)c2ccc(N3CCC([C@@H](O)c4ccccc4-c4ccc(Cl)cc4)CC3)cc2)cc1S(=O)(=O)C(F)(F)F` [AZD4320] + CN(C)CCCOc1ccc(-c2ccc3ncc4c(c3c2)n(C2CCOCC2)c(=O)n4C)cn1 [AZD0156] (first compound max 1 µM, 7x7, partner max 1 µM), the Bliss excess in test [1] is 0.0113; in test [2], -0.0414; in test [3] it was -0.01; in [4] it was -0.005; in [5], -0.0541; in [6], -0.0088. Further, the Bliss excess in [7] was 0.0223; in [8], -0.0612; in test [9], 0.0092; in test [10], -0.0277; in test [11], -0.0417; in [12] it was 0.0312. Besides, the Bliss excess is -0.0459 in test [13]; -0.0218 in the test on LN-229 (Glioblastoma); -0.0002 in test [14]; -0.028 in test [15]; -0.0308 in [16]; -0.0087 in test [17]. Further, the Bliss excess in test [18] was -0.0601; in test [19] it was -0.0045.
Take `Cc1c2c(nn1C)CSCc1cc(n(C)n1)CSc1cc(c3ccccc3c1)OCCCc1c(C(=O)O)n(C)c3c-2c(Cl)ccc13` [AZD5991] + CC1(C)CCC(CN2CCN(c3ccc(C(=O)NS(=O)(=O)c4ccc(NCC5CCOCC5)c([N+](=O)[O-])c4)c(Oc4cnc5[nH]ccc5c4)c3)CC2)=C(c2ccc(Cl)cc2)C1 [Venetoclax] (first compound max 1 µM, 7x7, partner max 1 µM): the Bliss excess in test [1] was -0.0225; in test [2] it was -0.0543; in test [3], -0.0231; in [4], -0.0325; in test [5], -0.0251; in test [6] it was 0.0028. Besides, the Bliss excess in test [7] is 0.0977; in test [8], -0.0206; in test [9], 0.206; in test [10], 0.0098; in test [11] it was -0.0337; in test [12], 0.0293. The Bliss excess was -0.0397 in test [13]; -0.0271 in the test on LN-229 (Glioblastoma); 0.117 in test [14]; -0.0255 in [15]; -0.0873 in test [16]; -0.0134 in test [17]. Moreover, the Bliss excess is -0.0191 in [18] and 0.0273 in test [19].
With `CC1(C)CCC(CN2CCN(c3ccc(C(=O)NS(=O)(=O)c4ccc(NCC5CCOCC5)c([N+](=O)[O-])c4)c(Oc4cnc5[nH]ccc5c4)c3)CC2)=C(c2ccc(Cl)cc2)C1` [Venetoclax] + C1CN(CCC1(C(=O)N[C@@H](CCO)C2=CC=C(C=C2)Cl)N)C3=NC=NC4=C3C=CN4 [Capivasertib] (first compound max 1 µM, 7x7, partner max 3 µM), the Bliss excess was -0.0377 in test [1]; -0.0465 in test [2]; -0.0382 in test [3]; -0.0409 in test [4]; -0.0573 in test [5]; -0.0539 in test [6]. Moreover, the Bliss excess in [7] is -0.0797; in test [8], -0.0205; in [9], 0.0111; in test [10], -0.0569; in test [11], -0.0469; in test [12] it was -0.0122. In addition, the Bliss excess in test [13] was -0.0881; with LN-229 (Glioblastoma), -0.0394; in test [14] it was -0.0257; in [15], -0.0482; in test [16], -0.0707; in test [17] it was -0.0548. Also, the Bliss excess was -0.0391 in [18] and 0.012 in test [19].
On to `CC(=O)c1c(C)c2cnc(Nc3ccc(N4CCNCC4)cn3)nc2n(C2CCCC2)c1=O` [Palbociclib] + Cn1cnc2c(F)c(Nc3ccc(Br)cc3Cl)c(C(=O)NOCCO)cc21 [Selumetinib] (first compound max 10 µM, 7x7, partner max 10 µM), for which the Bliss excess is -0.0255 in test [1]; -0.0391 in test [2]; 0.115 in test [3]; 0.0248 in test [4]; -0.0426 in test [5]; -0.0555 in test [6]. The Bliss excess in test [7] is 0.0052; in [8] it was -0.0092; in test [9], -0.0229; in test [10], -0.0454; in test [11], -0.0279; in test [12], 0.0281. The Bliss excess is -0.0015 in test [13]; 0.001 in the test with LN-229 (Glioblastoma); -0.0689 in [14]; -0.0207 in test [15]; 0.0226 in test [16]; -0.0062 in test [17]. Besides, the Bliss excess is -0.0488 in test [18] and 0.0207 in test [19].

(Values after the supplement of paper PMC11061612.)
